Here are results for four molecules from patent publication US11203576B2, “Aurora kinase and Janus kinase inhibitors for prevention of graft versus host disease” (H. LEE MOFFITT CANCER CENTER AND RESEARCH INSTITUTE, INC., priority 2016, dated 2021).

Series [1] relates to T-cells allostimulated by dendritic cells (DC). Briefly: Allogeneic mixed leukocyte reaction (alloMLR), T-cell proliferation. The class given is cell-based, human. The procedure:
Bulk donor T-cells were allostimulated with allogeneic DCs (DC:T-cell ratio of 1:30) as previously described (OneBlood, Tampa, Fla.)(15, 16, 20). […] As indicated, alloMLRs consisting of Treg depleted, naïve CD4^+ T-cells (Miltenyi Biotec Inc, San Diego, Calif.) were treated with a combination of ARL67156 (CD39 inhibitor, 125 μM, Sigma), AJI, or DMSO on day 0 to study the role of CD39 and ATP in this system. T-cell proliferation was measured on day 5 by a colorimetric assay (CellTiter 96 Aqueous One Solution Cell Proliferation Assay [MTS]; or CellTiter Blue, Promega, Madison, Wis.). Absorbance/optical density (OD) was analyzed at 490 nm or 590 nm, respectively. Proliferation (%)=(OD treated alloMLR−OD T-cells alone)/(OD DMSO alloMLR−OD T-cells alone)×100.

The next series concerns CD39 on iTreg. Kind of series: ATP hydrolysis assay. The class given is cell-based, human. The settings on record: ARL67156 125 μM. The procedure:
iTregs generated in the presence of AJI-241 (750 nM) or DMSO were plated in V-bottom 96 well plates in serum free media at a concentration of 75,000 cells per 100 μL. ARL67156 (125 μM) was added or not as indicated. A fixed dose of ATP (50 μM) was added to the cells and incubated at 37° C. for 45 minutes. ATP consumption was measured by a luminescence assay per the manufacturer's instructions (Promega, CellTiter-Glo Luminescent Cell Viability Assay) and read by a spectrofluorimeter. Percent consumption was calculated as (luminescence of test supernatant/luminescence of 50 μM ATP cell-free control supernatant)×100.

A further series has as its system RORgammaT. Kind of series: RORgammaT expression by RT-PCR. In kind it is cell-based, human. The conditions noted are these: TH17-polarizing medium, 5 days, vs DMSO.
The subject of a further series is GVHD. The conditions noted are these: mouse, in vivo; cited from earlier work.
The test system of another series is iTreg. Kind of series: iTreg differentiation and potency. In kind it is cell-based, human. The settings on record: for iTreg:allo Tconv ratio: 5-day MLRs; for iTreg:allo Tconv ratio / iTreg differentiation / absolute numbers of iTregs: vs DMSO; for iTreg differentiation / absolute numbers of iTregs: Treg-depleted naïve CD4+ T-cells, allogeneic DCs, 5 days; for suppressive capacity of iTregs generated in presence of inhibitor: standard suppression assay, no additional inhibitor added. How it is done: On day 5, iTregs were isolated and washed to minimize drug carry-over as reported. The T cells were harvested and surface-stained on day 5 for CD3, CD4, CD25, and CD127, followed by fixation and permeabilization (eBioscience) and Foxp3 staining. The absolute number of iTreg was calculated by flow cytometry using CountBright beads (Life Technologies). The purified iTregs were titrated against alloMLRs consisting of responder CD4+CD25− T cells (5×10^4) from the iTregs donor and fresh allogeneic DCs (1.6×10^3) to determine suppressive potency. T cell proliferation was determined by pulsing cells with [^3H]thymidine ([…]). Surface expression of CD39 and LAG3 was evaluated on the iTregs. iTregs production of CTLA4 was assessed by intracellular staining after a 5-hour treatment of PMA/ionomycin, with GolgiStop added during the last 4 hours of incubation. iTregs synthesis of IL-10 and TGF-β (Quansys Biosciences) was quantified from supernatants using multiplex cytokine assays after PMA/ionomycin stimulation.

The subject of the next series is TH17. Briefly: IL-17 ELISPOT of DC-stimulated CD4+ T cells. The class given is cell-based, human. The settings on record: DC-stimulated purified CD4+ T cells. The procedure:
Naïve CD4^+ T cells were purified and allostimulated (DC/T cell ratio of 1:30) as reported (B. C. Betts et al., CD4^+ T cell STAT3 phosphorylation precedes acute GVHD, and subsequent TH17 tissue invasion correlates with GVHD severity and therapeutic response. J. Leukocyte Biol. (2015)). Alisertib ([…]), TG101348 (350 nM), both alisertib and TG101348, AJI-214 (750 nM), AJI-100 (750 nM), or DMSO control was added once on day 0. Medium was supplemented with IL-6 (1×10^5 IU/mL), TGF-β (4 ng/mL; R&D Systems), and anti-IFN-γ monoclonal antibody ([…]; eBioscience) to polarize TH17. After 5 days, the T cells were harvested, washed, and then plated at 35,000 cells per well in an IL-17 ELISPOT plate (R&DSystems). The CD4^+ T cells were stimulated with PMA/ionomycin, and the ELISPOT assay was performed according to the manufacturer's instructions.

Another series deals with pSTAT5 (Y694). Kind of series: IL-2-induced STAT5 phosphorylation in T-cells. In kind it is cell-based, human. The settings on record: vs DMSO or unstimulated controls. How it is done:
As indicated, T cells were serum-starved in RPMI treated with DMSO diluent control, alisertib, TG101348, a combination of both inhibitors, AJI-214, or AJI-100 for 4 hours. IL-6-induced pSTAT3 or IL-2-induced pSTAT5 (Y694) was measured by flow cytometry.

The test system of series [2] is xenogeneic GVHD (NSG mice transplanted with human PBMCs). Briefly: Xenogeneic GVHD model. The settings on record: alisertib 30 mg/kg daily, TG101348 45 mg/kg twice a day, oral gavage day 0 to +14. The class given is in vivo. From the text: After transplantation and treatment with either AJI-100 or vehicle control, human T cells were isolated from recipient mouse spleens at day +14, stained for pH3Ser^10 or pSTAT3 (+IL-6 stimulation), and analyzed as described.
NOD scid gamma (NSG) mice (male or female, 6-24 weeks old) were purchased from Jackson Laboratory (Bar Harbor, Me., USA) and raised per an IACUC-approved protocol in adherence to the NIH Guide for the Care and Use of Laboratory Animals. Mice received either (i) alisertib (30 mg/kg daily), TG101348 (45 mg/kg twice a day), a combination of alisertib and TG101348, or vehicle (methylcellulose) by oral gavage or (ii) AJI-100 (50 mg/kg daily) or vehicle (50% polyethylene glycol, 15% 2-hydroxypropyl-b-cyclodextrin, and 10% DMSO in sterile saline) ip from day 0 to day +14.
Mice were monitored for GVHD clinical scores (K. R. Cooke et al., An experimental model of idiopathic pneumonia syndrome after bone marrow transplantation: I. The roles of minor H antigens and endotoxin. Blood 88, 3230 (1996)), weight, and premoribund status. As indicated, mice were euthanized on day +14 to study recipient spleen Tconv, Tregs, TH1, TH17, B cells, and T-cell signal transduction. Human CD4^+ Treg (CD25+, CD127^−, Foxp3^+), Tconv(CD25^+, CD127^+), TH1, TH17, and CD19^+ B cells residing in recipient spleens were quantified by flow cytometry. T-cell pH3 ser10 and PSTAT3 were evaluated by flow cytometry. IL-17 ELISPOTs were performed using isolated human T cells from recipient mouse spleen as described above. Tissue samples were prepared, stained (Ventana Medical Systems, Tucson, Ariz.), and imaged (Vista, Calif., USA) to identify human T-cells as previously described. All vertebrate animal work was IACUC-approved.

Series [3] has as its system H3 Ser10 (target of Aurora). Briefly: H3 Ser10 phosphorylation in DC-allostimulated T-cells (flow cytometry). The conditions noted are these: 5-day allogeneic DC stimulation; AJI 750 nM, alisertib 1.75 μM, TG101348 350 nM. In kind it is cell-based, human. The procedure:
After 5 days, T cells were then harvested and directly fixed (Cytofix, BD Biosciences) for 10 min at 37° C. After washing with phosphate-buffered saline, the T cells were permeabilized with icecold methanol (90%, v/v) for at least 20 min at -20° C. The cells were stained for expression of CD3 and pH[…].

Another series has as its system STAT3 (target of JAK2). Kind of series: STAT3 phosphorylation in T-cells (flow cytometry). The class given is cell-based, human. The conditions noted are these: in vitro, DC- or IL-6-stimulated, vs DMSO. How it is done:
IL-6-induced pSTAT3 or IL-2-induced pSTAT5 (Y694) was measured by flow cytometry.

The nature of the next series: Bioavailability. The settings on record: in vivo.

Read-outs that look alike come from different tables or passages of the source.

With `CCN(CC)c1ncnc2c1ncn2[C@@H]1O[C@H](COP(=O)(O)OP(=O)(O)C(Br)(Br)P(=O)(O)O)[C@@H](O)[C@H]1O` [ARL67156], the “T-cell inhibition by bisanilinopyrimidine (I)/AJI-214 on CD39 blockade” value in [1] (natural Treg-depleted CD4+ alloMLR, ARL67156 added) was “significantly weakened”. In the series on CD39 on iTreg, the “hydrolysis of ATP by AJI-treated iTregs on CD39 blockade” value is given as “significantly impaired”.
With `COc1cc(Nc2ncc3c(n2)-c2ccc(Cl)cc2C(c2c(F)cccc2OC)=NC3)ccc1C(=O)O` [alisertib], the “RORgammaT expression in alloresponder CD4+ T-cells” value in the series on RORgammaT is on record as “no effect”. Also, the inhibition at 0.625 µM in [1] (Homo sapiens, T-cell, alisertib 625 nM, read-out: inhibition of proliferative response of T-cells in alloMLRs) came out at 32.5%. The IC50 in series [1] (Homo sapiens, T-cell, alisertib alone (Study 2 text), read-out: median inhibitory concentration (IC50), T cells in alloMLRs) worked out at 10 µM; in series [1] (Homo sapiens, T-cell, alisertib alone, read-out: IC50, proliferative response of T-cells in alloMLRs), 10 µM; in series [1] (Homo sapiens, TG101348 and alisertib added together at fixed ratio 1:5, read-out: IC50 of the combination, alisertib concentration), 1.75 µM. The “onset of GVHD in mice” value in the series with GVHD is “significantly delayed the onset of GVHD”. Also, the “iTreg:allo Tconv ratio” value in the series with iTreg is given as “incrementally larger Treg:allo Tconv ratios”. In addition, the “iTreg differentiation / absolute numbers of iTregs” value with iTreg is “less absolute numbers of iTregs and allo Tconv”. Besides, the “suppressive capacity of iTregs generated in presence of inhibitor” value in the series with iTreg is “superior suppressive capacity”. Moreover, the “TH17 (IL-17 ELISPOT)” value in the series on TH17 is “no effect”. Also, the “IL-2-induced STAT5 activation/phosphorylation in T-cells” value in the series with pSTAT5 (Y694) is “remained intact”. Besides, the median survival in [2] is reported as 41 days. Moreover, the “phosphorylation of histone 3 serine 10 (pH3 Ser10) in T-cells” value in [3] was “only inhibited pH3Ser^10”.
`Cc1cnc(Nc2ccc(OCCN3CCCC3)cc2)nc1Nc1cccc(S(=O)(=O)NC(C)(C)C)c1` [TG101348]: in the series with STAT3 (target of JAK2), the “STAT3 (pSTAT3 Y705) phosphorylation in T-cells” value is given as “only inhibited pSTAT3”. In addition, the “RORgammaT expression in alloresponder CD4+ T-cells” value in the series with RORgammaT is “significantly decreases”. Besides, the IC50 in [1] (Homo sapiens, TG101348 and alisertib added together at fixed ratio 1:5, read-out: IC50 of the combination, TG101348 concentration) was 0.35 µM. Further, the “concentrations reducing alloreactive T-cell proliferation” value in series [1] (alloMLR) is on record as no less than 350 nM. Also, in the series with iTreg, the “iTreg:allo Tconv ratio” value is “incrementally larger Treg:allo Tconv ratios”; the “iTreg differentiation / absolute numbers of iTregs” value was “less absolute numbers of iTregs and allo Tconv”; the “suppressive capacity of iTregs generated in presence of inhibitor” value was “improved iTreg function compared with DMSO”. Moreover, the “IL-2-induced STAT5 activation/phosphorylation in T-cells” value with pSTAT5 (Y694) is reported as “remained intact”.
`NC(=O)c1ccc(Nc2ncc(F)c(Nc3ccccc3Cl)n2)cc1` [bisanilinopyrimidine (I)]: the bioavailability result in “Bioavailability” was “limited bioavailability”.
